Like-named read-outs stand apart in the source and are kept apart here.
Tests used:
ABCA1 protein = assay: Detection of upregulation of ABCA1 protein in cells (ApoA-I binding, high content imaging); assay type: cell-based; settings: THP-1 macrophage cells; for EC50: 24 hrs compound incubation, read-out: EC50 [μM] ABCA1 protein increasing efficacy; for % increase of ABCA1 at 3 μM: compound at 3 μM, 24 hrs
Procedure: The ability of compounds of the invention to increase the level of ABCA1 protein is determined in replicate cultures of THP-1 macrophage cells in 96-well microplates. Cells are plated at an initial density of 100,000 cells/well in 100 μl medium and differentiated to adherent macrophages with the addition of PMA (100 nM) for 68 hrs in 10% fetal bovine serum, 3 μl/L of b-mercaptoethanol, RPMI-1640 medium. Then, cells are incubated with RPMI-1640 medium containing 1% FCS, 25 μg/ml acetylated LDL, for 24 hours at 37° C. Following incubation with acetylated LDL, cells are washed twice with 50 μl PBS and incubated with 100 μl of RPMI-1640 medium containing the compound of interest solubilized in DMSO for an additional 24 hrs. The final DMSO concentration in presence of cells is maintained at 0.5%. ApoA-I binding assay using High Content Image Analysis is initiated by replacing with fresh medium, RPMI without Phenol Red, 0.2% BSA containing AlexaFluor®647 labeled ApoA-I for 2 h/37° C./5% CO2. Then, cells are fixed with 4% Formaldehyde in PBS (15 min, RT). Following Nuclei are stained with Hoechst solution (3 μM PBS) and Cytoplasm with Cell Mask Blue (2 μg/ml PBS), 15 min, RT. Finally the stained cells are fixed with a second round of formaldehyde treatment. Fixed stained cells are washed and kept in PBS at 4° C. and can be read immediately until one month after preparation.
The Alexa Fluor 647-labeled Apolipoprotein A-I (20 nM) was prepared as follows: Human recombinant Apolipoprotein A-I (ApoA-I) was exchanged to a buffer of 0.02 M NaHCO3 at pH 8.2 on an NAP desalting column (GE Healthcare) and brought to a concentration to 40 μM (1.13 mg/ml) by adjustment with the same buffer. The ApoA-I was fluorescently labeled by incubation with Alexa Fluor carboxylic acid succimidyl ester (Alexa Fluor 647, Invitrogen A-20006) at a 2:1 molar ratio (Alexa to ApoA-I) for 1 h under shaking at RT. The remaining unconjugated label was removed by buffer exchange to 0.02M NaHCO3 at pH 8.2.
Imaging and data collection were performed on an OPERA confocal microplate imaging reader using a 20× water immersion objective and UV360 or 405 laser to identify the cell nuclei and a 635 laser to identify the fluorescent ApoA-I. Eight fields of view are captured per well. Image capture and analysis was performed with the Acapella software. Background fluorescence detected in control wells without ApoA-I was subtracted.
Using XLfit3 program (ID Business Solutions Ltd. UK), the model 205 for Dose Response One Site is used to calculate the EC50 values. […] More particularly, the compounds of the present invention have EC50 values in a range of 0.1 μM to 3 μm.

human CB1 receptor = target: T1, human CB1 receptor (Homo sapiens, UniProt P21554); assay: CB1 receptor affinity ([3H]-CP-55,940 displacement, HEK cell membranes); assay type: binding; settings: read-out: CB1 receptor affinity [% inhibition @ 10 μM]
T1 construct: expressed in transfected cells; host or cells: human embryonic kidney (HEK) cells, Semliki Forest Virus system, membrane preparations
T1 sequence (P21554 whole entry): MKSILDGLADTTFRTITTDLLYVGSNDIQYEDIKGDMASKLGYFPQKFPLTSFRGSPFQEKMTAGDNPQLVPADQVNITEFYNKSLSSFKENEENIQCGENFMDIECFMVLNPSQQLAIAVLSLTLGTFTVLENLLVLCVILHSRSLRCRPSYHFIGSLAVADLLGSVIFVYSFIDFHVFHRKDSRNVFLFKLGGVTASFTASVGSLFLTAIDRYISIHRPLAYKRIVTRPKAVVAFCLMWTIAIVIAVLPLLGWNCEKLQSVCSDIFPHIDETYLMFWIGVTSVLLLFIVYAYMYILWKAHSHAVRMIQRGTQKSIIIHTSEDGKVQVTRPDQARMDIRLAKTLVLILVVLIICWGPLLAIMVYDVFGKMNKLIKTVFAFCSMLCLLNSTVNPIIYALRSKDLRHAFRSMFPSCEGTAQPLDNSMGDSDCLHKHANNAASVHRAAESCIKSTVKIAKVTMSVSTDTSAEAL
Procedure: (§1) The affinity of the compounds of the invention for cannabinoid receptors was determined using membrane preparations of human embryonic kidney (HEK) cells in which the human CB1 receptor is transiently transfected using a Semliki Forest Virus system in conjunction with [3H]-CP-55,940 as radioligand. After incubation of freshly prepared cell membrane preparation with the [^3H]-ligand, with or without addition of compounds of the invention, separation of bound and free ligand was performed by filtration over glass fiber filters. Radioactivity on the filter was measured by scintillation counting.
(§2) The ability of the compounds to displace the radioligand [^3H]-CP-55,940 was measured at a concentration of 10 μM and values provided as [% inhibition @ 10 μM] both for the CB1 and CB2 receptor assay, The lower % inhibition is, the lower the likelihood of side effects based on CB1 or CB2 receptor inhibition is.

human CB2 receptor = target: T2, human CB2 receptor (Homo sapiens, UniProt P34972); assay: CB2 receptor affinity ([3H]-CP-55,940 displacement, HEK cell membranes); assay type: binding; settings: displacement of [3H]-CP-55,940 at 10 μM
T2 construct: expressed in transfected cells; host or cells: human embryonic kidney (HEK) cells, Semliki Forest Virus system, membrane preparations
T2 sequence (P34972 whole entry): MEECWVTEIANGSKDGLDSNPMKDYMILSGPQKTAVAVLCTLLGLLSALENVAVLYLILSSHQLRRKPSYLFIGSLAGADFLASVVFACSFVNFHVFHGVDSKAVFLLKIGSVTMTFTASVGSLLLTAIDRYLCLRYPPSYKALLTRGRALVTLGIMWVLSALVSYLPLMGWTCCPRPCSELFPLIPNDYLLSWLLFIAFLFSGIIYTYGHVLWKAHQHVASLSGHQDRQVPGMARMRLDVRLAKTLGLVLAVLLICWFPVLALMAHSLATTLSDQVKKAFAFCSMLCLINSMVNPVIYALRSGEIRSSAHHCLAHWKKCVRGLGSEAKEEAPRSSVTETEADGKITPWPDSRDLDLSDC
Procedure: as §1, with “cannabinoid CB2” for “cannabinoid”, “CB2” for “CB1”, “[^3H]-CP-55,940” for “[3H]-CP-55,940”
as §2

[1] = displacement of [3H]-CP-55,940 at 10 μM

Question: `CN(NC(=O)c1cnc(OCC2CC2)c(C2CC2)c1)c1ccc(F)cc1` [Example 41, 5-cyclopropyl-6-cyclopropylmethoxy-nicotinic acid N′-(4-fluoro-phenyl)-N′-methyl-hydrazide] was tested. Which EC50 (ABCA1 protein) did it give?
Answer: The EC50 was 1.1 µM.

Question: What about the inhibition at 10 µM (human CB1 receptor; [1]) of the same compound?
Answer: The inhibition at 10 µM was 29%.

Question: And the inhibition at 10 µM (human CB2 receptor)?
Answer: The inhibition at 10 µM was 38%.

Question: For `O=C(NNc1ccc(F)cc1)c1cnc(OCC2CC2)c(C2CC2)c1` [Example 42], which EC50 (ABCA1 protein) is on record?
Answer: Its EC50 is 3.2 µM.

Question: What about the inhibition at 10 µM (human CB1 receptor; [1]) of the same compound?
Answer: The inhibition at 10 µM was 11%.

Question: What about the inhibition at 10 µM (human CB2 receptor) of the same compound?
Answer: The inhibition at 10 µM was 9%.

Question: For `CN(NC(=O)c1cnc(OCC2CC2)c(C2CC2)c1)c1ccccc1` [Example 43, 5-cyclopropyl-6-cyclopropylmethoxy-nicotinic acid N′-methyl-N′-phenyl-hydrazide], which EC50 (ABCA1 protein) is on record?
Answer: Its EC50 is 1.04 µM.

Question: And the inhibition at 10 µM (human CB1 receptor; [1])?
Answer: The inhibition at 10 µM was 28%.

Question: And the inhibition at 10 µM (human CB2 receptor)?
Answer: The inhibition at 10 µM was 39%.

Question: What does the source list for `C[C@@H]1CN(NC(=O)c2cnc(OCC(F)(F)F)c(C3CC3)c2)C[C@H](C)O1` [Example 44, 5-cyclopropyl-N-((2R,6S)-2,6-dimethyl-morpholin-4-yl)-6-(2,2,2-trifluoro-ethoxy)-nicotinamide]?
Answer: % increase of ABCA1 at 3 μM (ABCA1 protein): >45%@ 3 μM; inhibition at 10 µM (human CB1 receptor; [1]): 14%; inhibition at 10 µM (human CB2 receptor): 5%

Question: `C[C@@H]1CN(NC(=O)c2cnc(OCC3CC3)c(C3CC3)c2)C[C@H](C)O1` [Example 45, 5-cyclopropyl-6-cyclopropylmethoxy-N-((2R,6S)-2,6-dimethyl-morpholin-4-yl)-nicotinamide] was tested. Which EC50 (ABCA1 protein) did it give?
Answer: Its EC50 is 9.4 µM.

Question: And the inhibition at 10 µM (human CB1 receptor; [1])?
Answer: Its inhibition at 10 µM is 19%.

Question: What about the inhibition at 10 µM (human CB2 receptor) of the same compound?
Answer: The inhibition at 10 µM was 17%.

Question: For `O=C(NNCc1ccncc1)c1cnc(OCC(F)(F)F)c(C2CC2)c1` [Example 46, 5-cyclopropyl-6-(2,2,2-trifluoro-ethoxy)-nicotinic acid N′-pyridin-4-ylmethyl-hydrazide], which “% increase of ABCA1 at 3 μM” value (ABCA1 protein) is on record?
Answer: The value was over 45%@ 3 μM.

Question: And the inhibition at 10 µM (human CB1 receptor; [1])?
Answer: The inhibition at 10 µM was 11%.

Question: And the inhibition at 10 µM (human CB2 receptor)?
Answer: Its inhibition at 10 µM is 11%.

Question: Which results are given for `CN(NC(=O)c1cnc(OC2CCC2)c(C2CC2)c1)c1ccc(F)cc1` [Example 47, 6-cyclobutoxy-5-cyclopropyl-nicotinic acid N′-(4-fluoro-phenyl)-N′-methyl-hydrazide]?
Answer: % increase of ABCA1 at 3 μM (ABCA1 protein): >45%@ 3 μM; inhibition at 10 µM (human CB1 receptor; [1]): 25%; inhibition at 10 µM (human CB2 receptor): 7%

Question: What does the source list for `O=C(NNc1ccc(F)cc1)c1cnc(OC2CCC2)c(-c2ccco2)c1` [Example 48, 6-cyclobutoxy-5-furan-2-yl-nicotinic acid N′-(4-fluoro-phenyl)-hydrazide]?
Answer: EC50 (ABCA1 protein): 0.8 µM; inhibition at 10 µM (human CB1 receptor; [1]): 43%; inhibition at 10 µM (human CB2 receptor): -2%

Question: `CN(NC(=O)c1cnc(OCC(F)(F)F)c(C2CC2)c1)c1ccncc1` [Example 49, 5-cyclopropyl-6-(2,2,2-trifluoro-ethoxy)-nicotinic acid N′-methyl-N′-pyridin-4-yl-hydrazide] was tested. Which “% increase of ABCA1 at 3 μM” value (ABCA1 protein) did it give?
Answer: The value was over 45%@ 3 μM.

Question: And the inhibition at 10 µM (human CB1 receptor; [1])?
Answer: The inhibition at 10 µM was 13%.

Question: What about the inhibition at 10 µM (human CB2 receptor) of the same compound?
Answer: The inhibition at 10 µM was 3%.

Question: What does the source list for `O=C(NN1CCC(O)CC1)c1cnc(OC2CCC2)c(-c2ccco2)c1` [Example 50, 6-cyclobutoxy-5-furan-2-yl-N-(4-hydroxy-piperidin-1-yl)-nicotinamide]?
Answer: EC50 (ABCA1 protein): 0.16 µM; inhibition at 10 µM (human CB1 receptor; [1]): 15%; inhibition at 10 µM (human CB2 receptor): 6%

Question: Which EC50 (ABCA1 protein) does the source give for `CN(NC(=O)c1cnc(OC2CCC2)c(-c2ccco2)c1)c1ccc(Cl)nn1` [Example 51, 6-cyclobutoxy-5-furan-2-yl-nicotinic acid N′-(6-chloro-pyridazin-3-yl)-N′-methyl-hydrazide] here?
Answer: The EC50 was 0.47 µM.

Question: And the inhibition at 10 µM (human CB1 receptor)?
Answer: Its inhibition at 10 µM is 30%.

Question: What about the inhibition at 10 µM (human CB2 receptor) of the same compound?
Answer: The inhibition at 10 µM was -4%.

Question: Which EC50 (ABCA1 protein) does the source give for `CN(NC(=O)c1cnc(OC2CCC2)c(-c2ccco2)c1)c1ccncc1` [Example 52, 6-cyclobutoxy-5-furan-2-yl-nicotinic acid N′-methyl-N′-pyridin-4-yl-hydrazide] here?
Answer: Its EC50 is 5.8 µM.

Question: And the inhibition at 10 µM (human CB1 receptor; [1])?
Answer: Its inhibition at 10 µM is 31%.

Question: And the inhibition at 10 µM (human CB2 receptor)?
Answer: The inhibition at 10 µM was 19%.

Question: Which “% increase of ABCA1 at 3 μM” value (ABCA1 protein) does the source give for `CN(NC(=O)c1cnc(OCC2CC2)c(C2CC2)c1)c1ccc(C#N)cc1` [Example 53, 5-cyclopropyl-6-cyclopropylmethoxy-nicotinic acid N′-(4-cyano-phenyl)-N′-methyl-hydrazide] here?
Answer: Its value is over 45%@ 3 μM.

Question: What about the inhibition at 10 µM (human CB1 receptor; [1]) of the same compound?
Answer: Its inhibition at 10 µM is 47%.

Question: And the inhibition at 10 µM (human CB2 receptor)?
Answer: Its inhibition at 10 µM is 48%.

Question: Which results are given for `CN(NC(=O)c1cnc(OCC(F)(F)F)c(C2CC2)c1)c1ccc(C#N)cc1` [Example 54, 5-cyclopropyl-6-(2,2,2-trifluoro-ethoxy)-nicotinic acid N′-(4-cyano-phenyl)-N′-methyl-hydrazide]?
Answer: % increase of ABCA1 at 3 μM (ABCA1 protein): >45%@ 3 μM; inhibition at 10 µM (human CB1 receptor; [1]): 36%; inhibition at 10 µM (human CB2 receptor): 17%

Question: For `CN(NC(=O)c1cnc(OC2CCC2)c(C2CC2)c1)c1ccc(C#N)cc1` [Example 55, 6-cyclobutoxy-5-cyclopropyl-nicotinic acid N′-(4-cyano-phenyl)-N′-methyl-hydrazide], which “% increase of ABCA1 at 3 μM” value (ABCA1 protein) is on record?
Answer: The value was over 45%@ 3 μM.

Question: And the inhibition at 10 µM (human CB1 receptor; [1])?
Answer: Its inhibition at 10 µM is 27%.

Question: And the inhibition at 10 µM (human CB2 receptor)?
Answer: The inhibition at 10 µM was 18%.

Question: Which “% increase of ABCA1 at 3 μM” value (ABCA1 protein) does the source give for `CN(NC(=O)c1cnc(OCC(F)(F)F)c(-c2cccc(F)c2)c1)c1ccccc1` [Example 56, 5-(3-fluoro-phenyl)-6-(2,2,2-trifluoro-ethoxy)-nicotinic acid N′-methyl-N′-phenyl-hydrazide] here?
Answer: Its value is over 45%@ 3 μM.

Question: What about the inhibition at 10 µM (human CB1 receptor; [1]) of the same compound?
Answer: Its inhibition at 10 µM is 28%.

Question: And the inhibition at 10 µM (human CB2 receptor)?
Answer: Its inhibition at 10 µM is 16%.
